Assay results taken from patent US4011390A, “Semi-synthetic aminocyclitol aminoglycoside antibiotics and methods for the preparation thereof” (Schering-Plough Corporation, priority 1974, dated 1977).
Like-named read-outs stand apart in the source and are kept apart here.

What was measured:
Assay type in all cases: cell-based
Bacillus subtilis = test: Disc test, Bauer-Kirby technique with 10 Mcg. discs; conditions: Bacillus subtilis, ATCC6633, strain ATCC 6633
From the text: (§1) Disc Test Results (Replicate Tests) With The Mutamicins, Sisomicin and
(§2) Bauer-Kirby Technique^1 With 10 Mcg. Discs
(§3) ^1 Bauer, Kirby, Sherris and Turck, American Journal of Clinical

Escherichia coli = test: as above; conditions: Escherichia coli, read-out: Zone Size
From the text: as §1, §2, §3

Klebsiella pneumoniae [1] = test: as above; conditions: Klebsiella pneumoniae
From the text: as §1, §2, §3

Proteus airabilis = test: as above; conditions: strain Harding
From the text: as §1, §2, §3

Proteus rettgeri = test: as above; conditions: Providencia rettgeri
From the text: as §1, §2, §3

Providence 164 = test: as above; conditions: strain 164
From the text: as §1, §2, §3

Pseudomonas aeruginosa = test: as above; conditions: Pseudomonas aeruginosa
From the text: as §1, §2, §3

Salmonella typhimurium = test: as above; conditions: Salmonella enterica, Group B
From the text: as §1, §2, §3

Staphylococcus aureus = test: as above; conditions: Staphylococcus aureus
From the text: as §1, §2, §3

Streptococcus pyogenes = test: as above; conditions: Streptococcus pyogenes
From the text: as §1, §2, §3

E. coli = test: Activity against resistant strains; conditions: E. coli W677/R55 and LA290/R55
From the text: (§4) In many instances, bacterial resistance is related to the organism's ability to inactivate the antibacterial agent via enzymatic (biochemical) means. Some species inactivate aminoglycosides antibiotics by acetylating the antibacterial agent, others by phosphorylation and still others by adenylylating. Some strains have several different inactivating capabilities. Further, the inactivation reactions occur at a specific site or sites on the antibacterial agent. We have shown by the compounds of this invention that alteration of sites on the antibiotic molecule not directly involved in inactivation processes can nevertheless frustrate these inactivation processes. […] The tables illustrate that the mutamicins include compounds which are active against strains having different mechanisms of inactivation of gentamicin, sisomicin, kanamycin, neomycin and torbramycin. For example, some mutamicins are effective against strains of E. coli which contain adenylylating R factors such as E. coli W677/R55 and LA290/R55. These E. coli strains are resistant to gentamicin, sisomicin and torbramycin. Some are also effective against gentamicin, tobramycin and kanamycin resistant adenylylating strains of Klebsiella pneumoniae and also kanamycin, neomycin phosphorylating strains of E. coli and Klebsiella pneumoniae. Further, some mutamicins are effective against gentamicin and sisomicin resistant strains of Pseudomonas aeruginosa and gentamicin, sisomicin, tobramycin resistant Providence which is sensitive to kanamycin. Thus, the mutamicins afford a means for combatting strains of bacteria which have already developed a variety of mechanisms for resisting the action of many of the antibiotics known in the art or currently in commercial use.

Klebsiella pneumoniae [2] = test: Activity against resistant strains; conditions: gentamicin, tobramycin and kanamycin resistant adenylylating strains
From the text: as §4

Providence = test: Activity against resistant strains; conditions: gentamicin, sisomicin, tobramycin resistant Providence
From the text: as §4

[3] = ATCC10536, strain ATCC 10536, 10 Mcg. discs
[4] = strain St. Michael 1574-1, 10 Mcg. discs
[5] = strain Swidinsky 4195, 10 Mcg. discs

Compound: CN[C@@H]1[C@@H](O)[C@@H](O[C@@H]2C[C@H](O[C@H]3OC(CN)=CC[C@H]3N)[C@@H](N)C[C@H]2N)OC[C@]1(C)O [Mutamicin 2]
- zone of inhibition at 10 µg/disc (Bacillus subtilis): 33 mm
- zone of inhibition at 10 µg/disc (Escherichia coli; [3]): 28 mm
- zone of inhibition at 10 µg/disc (Escherichia coli; strain 589, 10 Mcg. discs): 24 mm
- zone of inhibition at 10 µg/disc (Escherichia coli; strain JR66, 10 Mcg. discs): 26 mm
- zone of inhibition at 10 µg/disc (Escherichia coli; strain JR88, 10 Mcg. discs): 22 mm
- zone of inhibition at 10 µg/disc (Escherichia coli; strain JR90, 10 Mcg. discs): 25 mm
- zone of inhibition at 10 µg/disc (Escherichia coli; strain LA290/R55, 10 Mcg. discs): 21 mm
- zone of inhibition at 10 µg/disc (Escherichia coli; [4]): 27 mm
- zone of inhibition at 10 µg/disc (Escherichia coli; [5]): 25 mm
- zone of inhibition at 10 µg/disc (Escherichia coli; strain W677/R55, 10 Mcg. discs): 21 mm
- zone of inhibition at 10 µg/disc (Klebsiella pneumoniae [1]; strain Ad 17): 23 mm
- zone of inhibition at 10 µg/disc (Klebsiella pneumoniae [1]; strain Ad 18): 25 mm
- zone of inhibition at 10 µg/disc (Klebsiella pneumoniae [1]; strain Georgetown 3020): 21 mm
- zone of inhibition at 10 µg/disc (Klebsiella pneumoniae [1]; strain Georgetown 3694): 22 mm
- zone of inhibition at 10 µg/disc (Proteus airabilis): 26 mm
- zone of inhibition at 10 µg/disc (Proteus rettgeri): 24 mm
- zone of inhibition at 10 µg/disc (Providence 164): 25 mm
- zone of inhibition at 10 µg/disc (Pseudomonas aeruginosa; strain Capetown 18): 22 mm
- zone of inhibition at 10 µg/disc (Pseudomonas aeruginosa; strain D-2): 26 mm
- zone of inhibition at 10 µg/disc (Pseudomonas aeruginosa; strain St. Michael 413): 27 mm
- zone of inhibition at 10 µg/disc (Pseudomonas aeruginosa; strain St. Michael 762): 26 mm
- zone of inhibition at 10 µg/disc (Pseudomonas aeruginosa; strain St. Michael 836): 28 mm
- zone of inhibition at 10 µg/disc (Pseudomonas aeruginosa; strain St. Michael 1262): 27 mm
- zone of inhibition at 10 µg/disc (Pseudomonas aeruginosa; strain St. Michael 1395): 28 mm
- zone of inhibition at 10 µg/disc (Pseudomonas aeruginosa; strain Stone 20): 33 mm
- zone of inhibition at 10 µg/disc (Pseudomonas aeruginosa; strain Stone 39): 27 mm
- zone of inhibition at 10 µg/disc (Pseudomonas aeruginosa; strain Stone 130): 25 mm
- zone of inhibition at 10 µg/disc (Pseudomonas aeruginosa; strain Stone 138): 23 mm
- zone of inhibition at 10 µg/disc (Salmonella typhimurium): 27 mm
- zone of inhibition at 10 µg/disc (Staphylococcus aureus; ATCC6538P, strain ATCC 6538P): 27 mm
- zone of inhibition at 10 µg/disc (Staphylococcus aureus; strain 59N): 29 mm
- zone of inhibition at 10 µg/disc (Staphylococcus aureus; strain 1118): 14 mm
- zone of inhibition at 10 µg/disc (Staphylococcus aureus; strain Grey): 16 mm
- zone of inhibition at 10 µg/disc (Staphylococcus aureus; strain Wood): 29 mm
- zone of inhibition at 10 µg/disc (Staphylococcus aureus; strain Ziegler): 28 mm
- zone of inhibition at 10 µg/disc (Streptococcus pyogenes; strain B-Cruz): 17 mm
- zone of inhibition at 10 µg/disc (Streptococcus pyogenes; strain C): 15 mm

Compound: CN[C@@H]1[C@@H](O)[C@@H](O[C@H]2[C@H](N)[C@H](O)[C@H](N)[C@@H](O[C@H]3OC(CN)=CC[C@H]3N)[C@@H]2O)OC[C@]1(C)O [Mutamicin 4]
- zone of inhibition at 10 µg/disc (Bacillus subtilis): 29 mm
- zone of inhibition at 10 µg/disc (Escherichia coli; [3]): 27 mm
- zone of inhibition at 10 µg/disc (Escherichia coli; strain 589, 10 Mcg. discs): 26 mm
- zone of inhibition at 10 µg/disc (Escherichia coli; strain Baker 2, 10 Mcg. discs): 24 mm
- zone of inhibition at 10 µg/disc (Escherichia coli; strain JR66, 10 Mcg. discs): 18 mm
- zone of inhibition at 10 µg/disc (Escherichia coli; strain JR88, 10 Mcg. discs): 16 mm
- zone of inhibition at 10 µg/disc (Escherichia coli; strain JR90, 10 Mcg. discs): 22 mm
- zone of inhibition at 10 µg/disc (Escherichia coli; [4]): 25 mm
- zone of inhibition at 10 µg/disc (Escherichia coli; [5]): 17 mm
- zone of inhibition at 10 µg/disc (Escherichia coli; strain W677/R55, 10 Mcg. discs): 13 mm
- zone of inhibition at 10 µg/disc (Klebsiella pneumoniae [1]; strain Ad 17): 25 mm
- zone of inhibition at 10 µg/disc (Klebsiella pneumoniae [1]; strain Ad 18): 24 mm
- zone of inhibition at 10 µg/disc (Klebsiella pneumoniae [1]; strain Ad 22): 26 mm
- zone of inhibition at 10 µg/disc (Klebsiella pneumoniae [1]; strain Georgetown 3020): 19 mm
- zone of inhibition at 10 µg/disc (Klebsiella pneumoniae [1]; strain Georgetown 3694): 19 mm
- zone of inhibition at 10 µg/disc (Proteus airabilis): 21 mm
- zone of inhibition at 10 µg/disc (Proteus rettgeri): 14 mm
- zone of inhibition at 10 µg/disc (Providence 164): 0 mm
- zone of inhibition at 10 µg/disc (Pseudomonas aeruginosa; strain Capetown 18): 16 mm
- zone of inhibition at 10 µg/disc (Pseudomonas aeruginosa; strain D-2): 17 mm
- zone of inhibition at 10 µg/disc (Pseudomonas aeruginosa; strain St. Michael 413): 19 mm
- zone of inhibition at 10 µg/disc (Pseudomonas aeruginosa; strain St. Michael 836): 19 mm
- zone of inhibition at 10 µg/disc (Pseudomonas aeruginosa; strain St. Michael 1262): 19 mm
- zone of inhibition at 10 µg/disc (Pseudomonas aeruginosa; strain St. Michael 1395): 19 mm
- zone of inhibition at 10 µg/disc (Pseudomonas aeruginosa; strain Stone 20): 28 mm
- zone of inhibition at 10 µg/disc (Pseudomonas aeruginosa; strain Stone 39): 20 mm
- zone of inhibition at 10 µg/disc (Pseudomonas aeruginosa; strain Stone 130): 14 mm
- zone of inhibition at 10 µg/disc (Pseudomonas aeruginosa; strain Stone 138): 11 mm
- zone of inhibition at 10 µg/disc (Salmonella typhimurium): 25 mm
- zone of inhibition at 10 µg/disc (Staphylococcus aureus; ATCC6538P, strain ATCC 6538P): 24 mm
- zone of inhibition at 10 µg/disc (Staphylococcus aureus; strain 59N): 26 mm
- zone of inhibition at 10 µg/disc (Staphylococcus aureus; strain 1118): 14 mm
- zone of inhibition at 10 µg/disc (Staphylococcus aureus; strain Grey): 13 mm
- zone of inhibition at 10 µg/disc (Staphylococcus aureus; strain Wood): 26 mm
- zone of inhibition at 10 µg/disc (Staphylococcus aureus; strain Ziegler): 24 mm
- zone of inhibition at 10 µg/disc (Streptococcus pyogenes; strain 27): 12 mm
- zone of inhibition at 10 µg/disc (Streptococcus pyogenes; strain C): 12 mm

Compound: NC[C@H]1O[C@H](O[C@H]2[C@H](O)[C@@H](O[C@H]3O[C@H](CO)[C@@H](O)[C@H](N)[C@H]3O)[C@H](N)C[C@@H]2N)[C@H](N)C[C@@H]1O [tobramycin]
- activity against strains containing adenylylating R factors (E. coli): resistant
- activity against resistant adenylylating strains (Klebsiella pneumoniae [2]): resistant
- activity against resistant Providence (Providence): resistant

Compound: CN[C@@H]1[C@@H](O)[C@@H](O[C@@H]2[C@@H](N)[C@H](O[C@H]3OC(CN)=CC[C@H]3N)[C@@H](N)C[C@H]2N)OC[C@]1(C)O [Mutamicin 5]
- zone of inhibition at 10 µg/disc (Bacillus subtilis): 28 mm
- zone of inhibition at 10 µg/disc (Escherichia coli; [3]): 24 mm
- zone of inhibition at 10 µg/disc (Escherichia coli): 18 mm
- zone of inhibition at 10 µg/disc (Escherichia coli; strain JR66, 10 Mcg. discs): 0 mm
- zone of inhibition at 10 µg/disc (Escherichia coli; strain JR88, 10 Mcg. discs): 0 mm
- zone of inhibition at 10 µg/disc (Escherichia coli; strain JR90, 10 Mcg. discs): 0 mm
- zone of inhibition at 10 µg/disc (Escherichia coli; [4]): 22 mm
- zone of inhibition at 10 µg/disc (Escherichia coli; [5]): 0 mm
- zone of inhibition at 10 µg/disc (Escherichia coli; strain W677/R55, 10 Mcg. discs): 10 mm
- zone of inhibition at 10 µg/disc (Klebsiella pneumoniae [1]; strain Ad 17): 20 mm
- zone of inhibition at 10 µg/disc (Klebsiella pneumoniae [1]; strain Ad 18): 21 mm
- zone of inhibition at 10 µg/disc (Klebsiella pneumoniae [1]; strain Georgetown 3020): 0 mm
- zone of inhibition at 10 µg/disc (Klebsiella pneumoniae [1]; strain Georgetown 3694): 0 mm
- zone of inhibition at 10 µg/disc (Proteus airabilis): 19 mm
- zone of inhibition at 10 µg/disc (Proteus rettgeri): 13 mm
- zone of inhibition at 10 µg/disc (Providence 164): 9 mm
- zone of inhibition at 10 µg/disc (Pseudomonas aeruginosa; strain Capetown 18): 0 mm
- zone of inhibition at 10 µg/disc (Pseudomonas aeruginosa; strain D-2): 0 mm
- zone of inhibition at 10 µg/disc (Pseudomonas aeruginosa; strain St. Michael 413): 11 mm
- zone of inhibition at 10 µg/disc (Pseudomonas aeruginosa; strain St. Michael 836): 10 mm
- zone of inhibition at 10 µg/disc (Pseudomonas aeruginosa; strain St. Michael 1262): 10 mm
- zone of inhibition at 10 µg/disc (Pseudomonas aeruginosa; strain St. Michael 1395): 0 mm
- zone of inhibition at 10 µg/disc (Pseudomonas aeruginosa; strain Stone 20): 16 mm
- zone of inhibition at 10 µg/disc (Pseudomonas aeruginosa; strain Stone 39): 12 mm
- zone of inhibition at 10 µg/disc (Pseudomonas aeruginosa; strain Stone 130): 0 mm
- zone of inhibition at 10 µg/disc (Pseudomonas aeruginosa; strain Stone 138): 0 mm
- zone of inhibition at 10 µg/disc (Salmonella typhimurium): 22 mm
- zone of inhibition at 10 µg/disc (Staphylococcus aureus; ATCC6538P, strain ATCC 6538P): 21 mm
- zone of inhibition at 10 µg/disc (Staphylococcus aureus; strain 59N): 23 mm
- zone of inhibition at 10 µg/disc (Staphylococcus aureus; strain Wood): 25 mm
- zone of inhibition at 10 µg/disc (Staphylococcus aureus; strain Ziegler): 23 mm

Compound: NC[C@H]1O[C@H](O[C@H]2[C@H](O)[C@@H](O[C@H]3O[C@H](CO)[C@@H](O)[C@H](N)[C@H]3O)[C@H](N)C[C@@H]2N)[C@H](O)[C@@H](O)[C@@H]1O [kanamycin]
- activity against resistant adenylylating strains (Klebsiella pneumoniae [2]): resistant
- activity against resistant Providence (Providence): sensitive
